The values that follow come from US11041181B2, “Promoter and method for producing purine nucleotide using the same” (CJ CHEILJEDANG CORPORATION, priority 2019, dated 2021).

The test system of one experiment is CJI2332. The experiment is classed as cell-based, Corynebacterium stationis. As to the method: (§1) To prepare an IMP-producing strain derived from the ATCC6872 strain, the culture of ATCC6872 was suspended in a phosphate buffer (pH 7.0) or citrate buffer (pH 5.5) at a density of 10^7 cells/mL to 10^8 cells/mL and treated with UV at room temperature or 32° C. for 20 min to 40 min to induce a mutation. The strain was washed with a 0.85% saline solution twice and spread, after dilution, on a minimal medium containing 1.7% agar which was supplemented with a resistance-providing material at an appropriate concentration, and thereby colonies were obtained. Each colony was cultured in a nutrient medium and then cultured in a seed culture medium for 24 hours. […] To prepare a strain producing IMP at high concentration, adenine-auxotroph, guanine-leaky type, lysozyme sensitivity, 3,4-dehydroproline resistance, streptomycin resistance, sulfaguanidine resistance, norvaline resistance, and trimethoprim resistance were provided by performing the corresponding procedures in a sequential manner. As a result, the CJI2332 strain provided with resistance to the above materials and having excellent IMP productivity was finally selected.
(§2) Minimal medium: 2% glucose, 0.3% sodium sulfate, 0.1% monopotassium phosphate, 0.3% dipotassium phosphate, 0.3% magnesium sulfate, 10 mg/L calcium chloride, 10 mg/L iron sulfate, 1 mg/L zinc sulfate, 3.6 mg/L manganese chloride, 20 mg/L L-cysteine, 10 mg/L calcium pantothenate, 5 mg/L thiamine hydrochloride, 30 μg/L biotin, 20 mg/L adenine, 20 mg/L guanine, adjusted to pH 7.3.

Another experiment relates to ATCC6872. As to the kind of experiment: Resistance/sensitivity characteristics of strain on minimal medium with resistance-providing material. The class given is cell-based, Corynebacterium stationis. On the procedure:
as §1, §2

On to `[H]/N=C(/N)NS(=O)(=O)c1ccc(N)cc1` [Sulfaguanidine], for which the resistance was 200 µg/mL in the experiment on CJI2332 and 50 µg/mL in the experiment on ATCC6872.
In the same order, the values of `[H]/N=C(/N)N[C@H]1[C@H](O)[C@@H](O)[C@H](O[C@@H]2O[C@@H](C)[C@](O)(C=O)[C@H]2O[C@@H]2O[C@@H](CO)[C@H](O)[C@@H](O)[C@@H]2NC)[C@@H](N/C(N)=N\[H])[C@@H]1O` [Streptomycin] are 2,000 μg/mL and 500 µg/mL.
In the case of `O=C(O)C1C=CCN1` (stereo not drawn) [3,4-Dehydroproline], the resistance with CJI2332 is on record as 3,500 μg/mL; in the experiment with ATCC6872, 1,000 μg/mL.
In the case of `CCC[C@H](N)C(=O)O` [Norvaline], the results for the Norvaline resistance in the experiment on CJI2332 and with ATCC6872 were 2 mg/mL and 0.2 mg/mL, respectively.
For `COc1cc(Cc2cnc(N)nc2N)cc(OC)c1OC` [Trimethoprim], the resistance with CJI2332 is 100 µg/mL; with ATCC6872, 20 µg/mL.
As for Lysozyme, the Lysozyme sensitivity in the experiment with CJI2332 amounted to 8 µg/mL; in the experiment with ATCC6872, 80 µg/mL.
